Data from US20100004316A1, “MULTIFUNCTIONAL CARRIERS FOR THE DELIVERY OF NUCLEIC ACIDS AND METHODS OF USE THEREOF” (UNIVERSITY OF UTAH RESEARCH FOUNDATION, priority 2006, published 2010).

Experiments:
[1] = Particle size of MFC/siRNA complexes by dynamic light scattering
Protocol: Particle Size Analysis. Samples were prepared by mixing 5.0 μg of plasmid DNA or siRNA with appropriate amount of materials in dust-free water and analyzed using a Brookhaven Instruments BI-200SM system equipped with a 5 mW helium neon laser with a wavelength output of 633 nm. The effective diameter and population distribution were computed from the diffusion coefficient using functions supplied by the instrument. Measurements were made at 25° C. at an angle of 90° and each sample was analyzed in triplicate.
Formation and size measurement of MFC/siRNA nanoparticles. MFC/siRNA nanoparticulate complexes were prepared and characterized using the techniques described above. The complexation of the polymerizable MFCs with siRNA and formation of nanoparticles of the complexes were investigated by dynamic light scattering. EHCO was first used to study the complexation with siRNA and the impact of N/P ratios on the complexation and formation of nanoparticles. […] The particle size of siRNA complexes with other polymerizable surfactants was measured at the N/P ratios of 8 and 10 based on the observation with EHCO.

[2] = system: U87-luc xenograft; experiment: In vivo luciferase knockdown with anti-luc siRNA complexes, bioluminescence imaging; design: species or system mice; settings: 50 μg anti-luciferase siRNA i.p.
Protocol: Animal tumor model. U87 cells with stably expression of luciferase were collected and resuspended with medium/matrigel mixture (v/v=l/l). 100 μL of cell suspension containing 2 million cells were injected subcutaneously in the right flanks of the mice.
Carriers. EHCO was selected for the study. DOTAP is a commercial available transfection agent that has been used to deliver siRNA in vivo and was used as a control carrier. siRNAs. Anti-Luciferase siRNA was used to knockdown luciferase expression in mice so as to noninvasively detect gene silencing efficiency by bioluminescence imaging. […] The sequence of antisense is 5′-[…]dTdT-3′ and that of sense is 3′-dTd[…]-5′. siRNA targeting HIF was provided Huntsman Cancer Institute, University of Utah. The sequence of antisense is 5′-[…]dTdT-3′ and that of sense is 3′-dTdT […]-5′.
Administration of Anti-Luc siRNA complexes and Luciferase mouse imaging. Bioluminescence imaging of mice were taken one day before the administration of the anti-luciferase complexes. […] Images were quantified using LivingImage software (Xenogen). […] The luminescence signal intensity on the day before the mice received the anti-luc complexes were set as 100% and the subsequent luciferase expression level in mice after siRNA treatments were normalized to the percentage relative to those at day 0.

[3] = system: U87-Luc cells; experiment: Luciferase gene silencing with anti-luciferase siRNA in U87-Luc cells; format: cell-based
Protocol: THCO-mediated delivery of siRNA targeting a luciferase reporter gene. U87-Luc cells were seeded 24 hours prior to transfection into a 96-well plate at a density of 5000 cells/well. At the time of siRNA transfection, the medium in each well was replaced with fresh serum-free medium. 20 nM anti-luciferase siRNA or non-specific siRNA was complexed with THCO or Transfast™ or DOTAP and incubated for 30 min before use. The transfection by Transfast or DOTAP was performed according to the manufacture's instruction. Complexes were incubated with the cells for 4 hours at 37° C. The medium was then replaced with 100 μL of fresh complete medium and cells were incubated for additional 44 hours. All the transfection tests were performed in triplicate wells. After the incubation, cells were washed with pre-warmed PBS and treated with 200 μL cell lysis buffer and then subjected to a freezing-thawing cycle. Cellular debris was removed by centrifugation at 14,000 g for 5 minutes. The luciferase activity in cell lysate (20 μL) was measured using a luciferase assay kit (100 μL luciferase assay buffer) on a luminometer for 10 seconds (Lumat 9605, EG&G Wallac). The gene silencing efficiency was normalized against the luciferase expression of untreated cells. The siRNA delivery efficiency was also similarly evaluated in 10% FBS medium.
G. In vitro delivery of nucleic acids by MFCs MFC-mediated in vitro gene silencing with siRNA. U87-luc cells with constitutive expression of firefly luciferase were maintained in minimal essential medium (ATCC) containing 10% FBS, G418 (300 μg/mL), streptomycin (100 μg/mL) and penicillin (100 units/mL). U87-Luc cells were seeded 24 hours prior to transfection into a 96-well plate at a density of 5000 cells/well. At the time of siRNA transfection, the medium in each well was replaced with fresh serum-free medium. Anti-luciferase siRNA was complexed with the MFC, TransFast or DOTAP and incubated for 30 min before use. Complexes were incubated with the cells for 4 hours at 37° C. The medium was then replaced with 100 μL of fresh complete medium and cells were incubated for an additional 44 hours. The cells were then washed with pre-warmed PBS, treated with 200 μL cell lysis buffer and subjected to a freezing-thawing cycle. Cellular debris was removed by centrifugation at 14,000 g for 5 minutes. The luciferase activity in cell lysate (20 μL) was measured using a luciferase assay kit (100 μL luciferase assay buffer) on a luminometer for 10 seconds (Lumat 9605, EG&G Wallac). The gene silencing efficiency was normalized against the luciferase expression of untreated cells.

[4] = system: U87-Luc cells; experiment: Cytotoxicity of MFC/siRNA complexes (MTT); format: cell-based; settings: siRNA complexes, 100 nM siRNA
Protocol: Cytotoxicity of MFC/siRNA complexes. U87-luc cells were incubated with MFC/siRNA complexes of different carriers according to the protocol described above. MTT in PBS (5 mg/mL, 25 μL) was added to each well after incubation and cells were incubated for another 2 hours. After cell culture medium was removed, 200 μL DMSO was added to each well and cells were incubated at 37° C. for 5 min. The optical absorption was measured at 570 nm using a micro-plate reader (Model 550, Bio-Rad Lab. Hercules, Calif.). The relative cell viability was calculated with the equation ([Abs]sample-[Abs]blank)/([Abs]control-[Abs]blank)×100%.

[5] = system: rat red blood cells; experiment: Hemolysis assay at different pHs; format: cell-based; settings: for hemolytic activity: 8.3 μM; for hemolysis: pH 7.4, 6.5 and 5.4 (all cases)
Protocol: Hemolysis assay. THCO (16.7 μM), DOTAP (16.7 μM) and Triton X-100 (1%, w/v) were dissolved in phosphate buffered saline (PBS) at a starting pH of 7.4, 6.5, or 5.4 as stock solutions. A rat was sacrificed and blood was obtained by cardiac puncture. Erythrocytes (RBC) were isolated by centrifugation at 1500 g for 10 min at 4° C. The cell pellet was resuspended into a 2% (w/v) RBC solution with prechilled PBS and then seeded (100 μL) into a 96-well plate. 100 μL of testing samples were added to RBC solutions and the plate was incubated for 1 h at 37° C. The absorbance of the supernatant from each sample was measured at 550 nm using a micro-plate reader.
Hemolysis assay. The assays were performed using the techniques described above. The pH sensitive amphiphilic cell membrane disruption of the MFCs was evaluated by hemolysis assay with rat red blood cells at different pHs. […] Generally, all MFCs had lower hemolytic activity at pH 7.4 than at pH 6.5 and 5.4.

[6] = system: U87 cells; experiment: MTT cytotoxicity assay in U87 cells; format: cell-based; settings: concentration of 250 μg/mL, 24 h
Protocol: In another study, U87 cells were seeded in a 96-well plate 24 h before the assay at a density of 10,000 cells/well. The cells were incubated with 200 μL of medium containing THCO at different concentrations and incubate for 24 h. Then 25 μL MTT solution in PBS was added and cells were incubated for another 2 hours. After removing media, 200 μL of DMSO was added to the wells and cells were incubated at 37° C. for 5 min. The optical densities were measured at 570 nm using a micro-plate reader (Model 550, Bio-Rad Lab. Hercules, Calif.). The relative cell viability was calculated as described above. […] The viability of U87 cells incubated with THCO was 79±8% at a concentration of 250 μg/mL as determined the MTT assay, slightly higher than that of DOTAP (72±4%) (FIG. 8).

| particle size of siRNA complexes (diameter) ([1]; N/P ratio of 0.5, incubated 30 minutes) | particle size of siRNA complexes ([1]; N/P ratio of 4) | particle size of siRNA complexes ([1]; N/P ratio of 6) | particle size of siRNA complexes (diameter) ([1]; N/P ratio of 8, dust free water) | particle size of siRNA complexes ([1]; N/P ratio of 10) | Compound | reduction of luciferase expression in the tumor ([2]; after two treatments) | luciferase silencing (transfection) efficiency ([3]; 20 nM siRNA, MFCs at N/P ratio of 10, FIG. 21b) | knockdown of luciferase expression ([3]; 100 nM siRNA, MFCs at N/P ratio of 10, FIG. 21a) | cell viability [4] | hemolytic activity ([5]; pH 6.5, PBS) | hemolytic activity ([5]; pH 7.4, PBS) | hemolysis [5] | viability of U87 cells [6] | effect on luciferase expression in the tumor ([2]; two treatments) | gene silencing efficiency ([3]; 20 nM siRNA, serum free medium, THCO N/P=8, FIG. 12) | gene silencing efficiency ([3]; 20 nM siRNA, serum-free medium, THCO at N/P ratios from 4 to 16) |
| --- | --- | --- | --- | --- | --- | --- | --- | --- | --- | --- | --- | --- | --- | --- | --- | --- |
| approximately 200 nm | about 3 μm | approximately 240 nm | approximately 200 nm | ~151 nm | CCCCCCCCC=CCCCCCCCC(=O)NC(CS)C(=O)NC(Cc1cnc[nH]1)C(=O)NCCNC(=O)CCN(CCN)CCC(=O)NCCNC(=O)C(Cc1cnc[nH]1)NC(=O)C(CS)NC(=O)CCCCCCCC=CCCCCCCCC (centres unmarked) [EHCO, (1-aminoethyl)imino-bis[N-(oleicyl-cysteinyl-histinyl-1-aminoethyl)propion-amide]] | more than 50% | 74.5±1.0% | 88.4±3.1% | 86.7±8.3% | negligible hemolysis | negligible hemolysis | – | – | – | – | – |
| – | – | – | – | – | Triton X-100 [reference compound] | – | – | – | – | – | – | complete hemolysis | – | – | – | – |
| – | – | – | – | – | N-(2,3-dioleoyloxy-1-propyl)trimethylammonium methyl sulfate [DOTAP, reference compound] | – | – | – | – | – | – | Little hemolysis | 72±4% | did not have significant effect after the second treatment | 47.1±3.8% | 47% |
